Consider four molecules from ChEMBL document CHEMBL4304804, “Synthesis and biological evaluation of calycanthaceous alkaloid analogs” (Bioorg Med Chem, 2019).

In brackets after ≈: the same amount, converted by molar mass. Activity calls are given as the source filed them. The calls are words filed in the database; no cut-off is given here.

Experiment [1] relates to Verticillium dahliae. Nature of the experiment: Antifungal activity against Verticillium dahliae assessed as reduction in fungal cell growth incubated for 48 hrs by serial dilution method. In kind it is functional.
Experiment [2] has as its system Fusarium oxysporum f. sp. vasinfectum. Nature of the experiment: Antifungal activity against Fusarium oxysporum sp. vasinfectum assessed as reduction in fungal cell growth incubated for 48 hrs by serial dilution method. In kind it is functional.
Experiment [3] has as its system Cytospora. Briefly: Antifungal activity against Cytospora juglandis assessed as reduction in fungal cell growth incubated for 48 hrs by serial dilution method. It is filed as functional.
Experiment [4] deals with Aspergillus flavus. Briefly: Antifungal activity against Aspergillus flavus assessed as reduction in fungal cell growth incubated for 48 hrs by serial dilution method. In kind it is functional.
Experiment [5] deals with Penicillium citrinum. Nature of the experiment: Antifungal activity against Penicillium citrinum assessed as reduction in fungal cell growth incubated for 48 hrs by serial dilution method. In kind it is functional.
Experiment [6] deals with Fusarium oxysporum. Nature of the experiment: Antifungal activity against Fusarium oxysporum assessed as reduction in fungal cell growth incubated for 48 hrs by serial dilution method. In kind it is functional.
For experiment [7], the system named is Colletotrichum orbiculare. Briefly: Antifungal activity against Colletotrichum orbiculare assessed as reduction in fungal cell growth incubated for 48 hrs by serial dilution method. In kind it is functional.
Experiment [8] relates to Aspergillus niger. Nature of the experiment: Antifungal activity against Aspergillus niger assessed as reduction in fungal cell growth incubated for 48 hrs by serial dilution method. It is filed as functional.
The subject of experiment [9] is Curvularia lunata. Briefly: Antifungal activity against Curvularia lunata assessed as reduction in fungal cell growth incubated for 48 hrs by serial dilution method. In kind it is functional.
Experiment [10] concerns Escherichia coli. Nature of the experiment: Antibacterial activity against Escherichia coli assessed as reduction in bacterial cell growth incubated for 24 hrs by filter paper assay. It is filed as functional.
The subject of experiment [11] is Pseudomonas aeruginosa. Briefly: Antibacterial activity against Pseudomonas aeruginosa assessed as reduction in bacterial cell growth incubated for 24 hrs by filter paper assay. It is filed as functional.
Experiment [12] deals with Ralstonia solanacearum. Briefly: Antibacterial activity against Ralstonia solanacearum assessed as reduction in bacterial cell growth incubated for 24 hrs by filter paper assay. It is filed as functional.
Experiment [13] deals with Bacillus cereus. Briefly: Antibacterial activity against Bacillus cereus assessed as reduction in bacterial cell growth incubated for 24 hrs by filter paper assay. It is filed as functional.
Experiment [14] has as its system Staphylococcus aureus. Nature of the experiment: Antibacterial activity against Staphylococcus aureus assessed as reduction in bacterial cell growth incubated for 24 hrs by filter paper assay. It is filed as functional.
Experiment [15] deals with Candida. Briefly: Antifungal activity against […] assessed as reduction in fungal cell growth incubated for 48 hrs by serial dilution method. It is filed as functional.
The test system of experiment [16] is Cryptococcus neoformans. Briefly: Antifungal activity against Cryptococcus neoformans assessed as reduction in fungal cell growth incubated for 48 hrs by serial dilution method. In kind it is functional.
Experiment [17] has as its system Candida tropicalis. Briefly: Antifungal activity against Candida tropicalis assessed as reduction in fungal cell growth incubated for 48 hrs by serial dilution method. In kind it is functional.
Experiment [18] concerns Candida. Nature of the experiment: Antifungal activity against […] assessed as reduction in fungal spore germination at 500 ug/ml relative to control. It is filed as functional.
Experiment [19] has as its target Acetylcholinesterase (Electrophorus electricus, UniProt O42275). Briefly: Inhibition of electric eel AChE by Ellman's colorimetry. Background: DTNB colorimetry detects thiols as they appear.
Experiment [20] has as its system Ralstonia solanacearum. Briefly: Antibacterial activity against Ralstonia solanacearum assessed as reduction in bacterial cell growth at 500 ug/ml incubated for 24 hrs by filter paper assay relative to control. In kind it is functional.
Experiment [21] deals with Verticillium dahliae. Briefly: Antifungal activity against Verticillium dahliae assessed as reduction in fungal cell growth at 31.25 ug/ml incubated for 48 hrs by serial dilution method relative to control. It is filed as functional.
The test system of experiment [22] is Verticillium dahliae. Nature of the experiment: Antifungal activity against Verticillium dahliae assessed as reduction in fungal cell growth at 62.5 ug/ml incubated for 48 hrs by serial dilution method relative to control. It is filed as functional.
In experiment [23] the test system is Verticillium dahliae. Nature of the experiment: Antifungal activity against Verticillium dahliae assessed as reduction in fungal cell growth at 125 ug/ml incubated for 48 hrs by serial dilution method relative to control. In kind it is functional.
Experiment [24] concerns Verticillium dahliae. Briefly: Antifungal activity against Verticillium dahliae assessed as reduction in fungal cell growth at 250 ug/ml incubated for 48 hrs by serial dilution method relative to control. In kind it is functional.
Experiment [25] has as its system Curvularia lunata. Nature of the experiment: Antifungal activity against Curvularia lunata assessed as reduction in fungal cell growth at 62.5 ug/ml incubated for 48 hrs by serial dilution method relative to control. In kind it is functional.
In experiment [26] the test system is Curvularia lunata. Nature of the experiment: Antifungal activity against Curvularia lunata assessed as reduction in fungal cell growth at 125 ug/ml incubated for 48 hrs by serial dilution method relative to control. It is filed as functional.
Experiment [27] concerns Curvularia lunata. Briefly: Antifungal activity against Curvularia lunata assessed as reduction in fungal cell growth at 250 ug/ml incubated for 48 hrs by serial dilution method relative to control. It is filed as functional.
Experiment [28] deals with Curvularia lunata. Briefly: Antifungal activity against Curvularia lunata assessed as reduction in fungal spore germination at 125 ug/ml relative to control. It is filed as functional.
Experiment [29] relates to Curvularia lunata. Nature of the experiment: Antifungal activity against Curvularia lunata assessed as reduction in fungal spore germination at 250 ug/ml relative to control. In kind it is functional.

Sequence of Acetylcholinesterase (O42275 whole entry): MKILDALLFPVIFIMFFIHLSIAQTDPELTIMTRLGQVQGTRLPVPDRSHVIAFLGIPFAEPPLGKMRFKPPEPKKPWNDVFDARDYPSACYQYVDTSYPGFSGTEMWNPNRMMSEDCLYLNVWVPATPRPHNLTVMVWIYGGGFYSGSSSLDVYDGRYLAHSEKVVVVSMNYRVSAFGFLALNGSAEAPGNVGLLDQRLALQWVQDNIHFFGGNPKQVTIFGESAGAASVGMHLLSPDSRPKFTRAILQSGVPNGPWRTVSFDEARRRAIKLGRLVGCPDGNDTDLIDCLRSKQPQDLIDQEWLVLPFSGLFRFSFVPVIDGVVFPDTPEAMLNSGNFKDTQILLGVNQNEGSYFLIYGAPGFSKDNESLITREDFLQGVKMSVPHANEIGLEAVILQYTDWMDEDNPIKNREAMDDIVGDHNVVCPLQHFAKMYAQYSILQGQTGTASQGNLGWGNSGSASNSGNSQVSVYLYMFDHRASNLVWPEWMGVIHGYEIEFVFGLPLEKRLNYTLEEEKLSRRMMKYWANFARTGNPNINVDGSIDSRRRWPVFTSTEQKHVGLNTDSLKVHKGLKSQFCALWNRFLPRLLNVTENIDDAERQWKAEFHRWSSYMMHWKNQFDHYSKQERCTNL

For the molecule `CCCCCCCC(=O)N1CCC2(Cc3cccc(C)c3)c3ccccc3N(Cc3cccc(C)c3)C12` (stereo not drawn), the MIC amounted to 62.5 µg/mL (≈ 126 µM) in [1]; 250 µg/mL (≈ 505 µM) in experiment [2]; 125 µg/mL (≈ 253 µM) in experiment [3]; 250 µg/mL (≈ 505 µM) in experiment [4]; 250 µg/mL (≈ 505 µM) in experiment [5]; 125 µg/mL (≈ 253 µM) in experiment [6]. The MIC in [7] was 250 µg/mL (≈ 505 µM); in experiment [8] it was 250 µg/mL (≈ 505 µM); in experiment [9] it was 125 µg/mL (≈ 253 µM); in [10] it was 250 µg/mL (≈ 505 µM); in experiment [11] it was 125 µg/mL (≈ 253 µM); in [12] it was 62.5 µg/mL (≈ 126 µM). Besides, the MIC in [13] came to 62.5 µg/mL (≈ 126 µM); in experiment [14], 125 µg/mL (≈ 253 µM); in experiment [15] it was 31.2 µg/mL (≈ 63.2 µM); in [16] it was 125 µg/mL (≈ 253 µM); in experiment [17] it was 125 µg/mL (≈ 253 µM). Further, the inhibition at 500 µg/mL in experiment [18] was 87.5%. The 50% inhibitory concentration (IC50) in experiment [19] was 87.9 µM.

On to `CCCCCCCC(=O)N1CCCC2(O)c3ccccc3N(C)C12` (stereo not drawn), for which the MIC in [1] turned out to be 62.5 µg/mL (≈ 189 µM); in experiment [2], 250 µg/mL (≈ 756 µM); in experiment [3], 125 µg/mL (≈ 378 µM); in [4], 125 µg/mL (≈ 378 µM); in experiment [7], 250 µg/mL (≈ 756 µM); in experiment [8], 250 µg/mL (≈ 756 µM). The MIC in experiment [9] amounted to 125 µg/mL (≈ 378 µM); in experiment [10] it was 62.5 µg/mL (≈ 189 µM); in [11], 250 µg/mL (≈ 756 µM); in experiment [12], 31.2 µg/mL (≈ 94.6 µM); in experiment [13] it was 250 µg/mL (≈ 756 µM); in experiment [14], 62.5 µg/mL (≈ 189 µM). For the same molecule, in [16], the minimum inhibitory concentration (MIC) amounted to 125 µg/mL (≈ 378 µM). Moreover, the MIC entry in experiment [5], in [6], in experiment [15] and in experiment [17] was “inactive” throughout. Further, the inhibition at 500 µg/mL in [20] was 100%. Further, the concentration for half-maximal inhibition (IC50) in experiment [19] is 0.363 µM.

With `CCCCCCCC(=O)N1CCC2(Cc3ccccc3C)c3ccccc3N(Cc3ccccc3C)C12` (stereo not drawn), the MIC is 31.2 µg/mL (≈ 63.2 µM) in experiment [1]; 250 µg/mL (≈ 505 µM) in experiment [2]; 125 µg/mL (≈ 253 µM) in experiment [3]; 250 µg/mL (≈ 505 µM) in experiment [4]; 250 µg/mL (≈ 505 µM) in [5]; 125 µg/mL (≈ 253 µM) in experiment [6]. The MIC amounted to 250 µg/mL (≈ 505 µM) in [7]; 250 µg/mL (≈ 505 µM) in experiment [8]; 125 µg/mL (≈ 253 µM) in [9]; 125 µg/mL (≈ 253 µM) in [10]; 125 µg/mL (≈ 253 µM) in experiment [11]; 62.5 µg/mL (≈ 126 µM) in experiment [12]. In addition, the minimum inhibitory concentration (MIC) in [13] came to 62.5 µg/mL (≈ 126 µM); in experiment [14] it was 125 µg/mL (≈ 253 µM); in [15], 31.2 µg/mL (≈ 63.2 µM); in experiment [16] it was 62.5 µg/mL (≈ 126 µM); in experiment [17] it was 125 µg/mL (≈ 253 µM). For the same molecule, the inhibition at 31.25 µg/mL in [21] came out at 46.2%. Moreover, the inhibition at 62.5 µg/mL in experiment [22] is 47%. The inhibition at 125 µg/mL in experiment [23] is 63.4%. In addition, in [24], the inhibition at 250 µg/mL was 67.7%. Besides, the IC50 in experiment [19] is 16.5 µM.

As for `CCCCCCC(=O)N1CCCC2(O)c3ccccc3N(C)C12` (stereo not drawn), the MIC in experiment [1] is 62.5 µg/mL (≈ 198 µM); in [2] it was 250 µg/mL (≈ 790 µM); in [3], 125 µg/mL (≈ 395 µM); in experiment [6], 250 µg/mL (≈ 790 µM); in experiment [7], 250 µg/mL (≈ 790 µM); in [8] it was 250 µg/mL (≈ 790 µM). Also, the minimal inhibitory concentration (MIC) worked out at 62.5 µg/mL (≈ 198 µM) in [9]; 125 µg/mL (≈ 395 µM) in experiment [10]; 250 µg/mL (≈ 790 µM) in experiment [11]; 62.5 µg/mL (≈ 198 µM) in [12]; 250 µg/mL (≈ 790 µM) in [13]; 62.5 µg/mL (≈ 198 µM) in experiment [14]. For the same molecule, the MIC in [16] was found to be 125 µg/mL (≈ 395 µM); in [17] it was 250 µg/mL (≈ 790 µM). For the same molecule, the MIC result in experiment [4], in experiment [5] and in experiment [15] was “inactive” each time. Further, the inhibition at 62.5 µg/mL in experiment [25] came out at 15.5%. In addition, the inhibition at 125 µg/mL in experiment [26] was determined as 31.3%; in experiment [28], 76.2%. Besides, the inhibition at 250 µg/mL is 77.7% in experiment [27] and 43.7% in experiment [29]. The molecule further showed an IC50 in [19] of 4.2 µM.

Broadly, the MIC is the lowest concentration found to suppress growth. For orientation: inhibition means the relative decrease from the control value, in per cent. Broadly, the IC50 is the concentration at which inhibition is half-maximal. High values mean lower potency, low ones higher potency.
